# System: Mycobacterium tuberculosis
# Assay: Antimicrobial activity against Mycobacterium bovis BCG by NCCLS M7-A6 method
# Type: functional
# Conditions: variant bovis BCG
smiles,measurement,value
COc1cc(O)cc(/C=C/c2ccccc2)c1 [PINOSYLVIN METHYL ETHER],MIC,26 µg/mL

# Source: ChEMBL document CHEMBL1143441, “New classes of Gram-positive selective antibacterials: inhibitors of MRSA and surrogates of the causative agents of anthrax and tuberculosis” (2008)
